Test results reported in publication PMC8070745, “FEN1 Blockade for Platinum Chemo-Sensitization and Synthetic Lethality in Epithelial Ovarian Cancers” (Cancers, 2021).

How the values were obtained:
Assay type in all cases: cell-based, human
PEO4 cells [1] = assay: γH2AX analysis, PEO4; conditions: FEN1i plus cisplatin
Description: Graphical representation and statistical analysis of mean tail moment was performed in GraphPad Prism 6 (GraphPad, La Jolla, USA). All experiments were done in duplicate three times.
γH2AX FACS: For monitoring DNA double strand break accumulation by γH2AX FACS, 1.05×104 Cells/cm2 were seeded in 6-well plates and left overnight at 37°C in a 5% CO 2 atmosphere. Cisplatin (5µM) or FEN1i (10µM) was later added to cells and incubated for 24h and 48h at 37°C in a 5% CO2 atmosphere. Cells were collected by trypsinization, washed […]
with ice cold PBS and fixed in 70% ethanol for 1h at -20°C. After removal of the fixative solution by centrifugation, cells were stained with 2 µg/ml of phospho-Histone (γH2AX) Ser139 (16202A, Millipore, UK) to detect DSBs.
Cell cycle progression: Cells were treated with 20 µg/ml RNase A (12091021, Invitrogen) and then 10 µg/ml Propidium Iodide (P4170, Sigma Aldrich) was added to determine the cell cycle distribution. The samples were analysed on a Beckman-Coulter FC500 flow cytometer using a 488nm laser for excitation and emission data for PI collected using a 620nm bandpass filter (FL3) and a 525nm bandpass filter (FL1) for FITC-anti-phospho-Histone H2A.X. […]
Graphical representation and statistical analysis was performed in GraphPad Prism 7 (GraphPad, La Jolla, USA). […]

A2780cis cells = assay: Neutral COMET assay, A2780cis; conditions: combination with cisplatin vs cisplatin or FEN1i monotherapy
Description: (1:200, ab26343). Infrared dye-labelled secondary antibodies (Li-Cor) [IRDye 800CW Donkey Anti-Rabbit IgG and IRDye 680CW Donkey Anti-Mouse IgG] were incubated at a dilution of 1:10000 for 1 h. Membranes were scanned with a LiCor Odyssey machine (700 and 800 nm) to determine protein expression. ß-Tubulin or ß-actin was used as a loading controls for the whole cell lysates. GADPH and YYI were used as loading controls to cytoplasmic and nuclear fractions, respectively. First incubation was with FEN1 antibody and then imaged. This was followed by incubation with loading control and then imaged for analysis. Bar charts show means of optical density (O.D.) ± S.D and all data is representative of at least three independent experiments. qRT-PCR analysis of FEN1 gene expre ssion: RNA was extracted using the RNeasy Mini Kit (74104, Qiagen) and quantified using a Nanodrop 2000c (Thermo Fisher Scientific). cDNA synthesis was performed using the RT2 First Strand Kit (330404, Qiagen). Real time PCR was carried out on an Applied Biosystems […] FAST cycler.
Neutral COMET assay: 1.0x10^5 cells per well were seeded in 6 well tissue culture plates and incubated at 37°C and 5% CO2 overnight. […] Fifty comets were scored per sample using Comet Assay III/IV image analysis software (Perceptive Instruments, Bury St Edmonds, UK). […]

PEO4 cells [2] = assay: Annexin V apoptosis detection, PEO4; conditions: FEN1i plus cisplatin
Description: The samples were analysed on a Beckman-Coulter FC500 flow cytometer using a 488nm laser for excitation and emission data for PI collected using a 620nm bandpass filter (FL3) and a 525nm bandpass filter (FL1) for FITC-anti-phospho-Histone H2A.X.
Apoptosis detection: Annexin V detection kit (556547, BD Biosciences) was used to quantify apoptotic cells. Briefly, cells were trypsinized, washed with PBS and the cellular pellet was re-suspended in Anexin Binding Buffer (1×). Following, FITC Anexin V and Propidium Iodide were added to the cells. After incubation, Anexin binding Buffer (1×) was added to each tube. All the samples were analysed on a Beckman-Coulter FC500 flow cytometer. The percentage of apoptotic cells was determined (late apoptotic = FITC-Annexin V positive, PI positive early apoptotic = FITC-Annexin V positive, PI negative; live cells = FITC-Annexin V negative, PI negative) and compared for untreated and treated samples. Graphical representation and statistical analysis was performed in GraphPad Prism 7 (GraphPad, La Jolla, USA).
3D Spheroid assays: A2780_control and A2780 FEN1_ KO as well as A2780cis_control and A2780cis FEN1_ KO cells were seeded at 4500 cells/cm2 density in ultra-low attachment 6-well plates (174932, Thermo Fisher Scientific) and cultured in 3D Tumorsphere Medium (C28070, PromoCell, UK) at 37°C in a 5% CO2 atmosphere. […]

[3] = test system: FEN1 nuclear level in A2780cis cells; assay: Nuclear extract western blot for FEN1, A2780cis; conditions: 5 µM cisplatin, 24 h
Description: Clonogenic assay: In the clonogenic assay (colony formation assays), 32 cells/cm2 were seeded in 6-well plates and left at 37°C in a 5% CO2 atmosphere. Cisplatin (5µM) and/or FEN1i (10µM) and/or Importazole (5 µM, Selleckem, S8446 ) were added at the indicated concentrations and the plates were left at 37 °C in a 5% CO 2 atmosphere for 14 days. Later, the plates were washed with PBS, fixed and stained with a crystal violet, acetic acid and methanol solution and colonies were counted.
Nuclear and cytoplasmic extract: Cells were harvest by trypsinization, washed with PBS and centrifuged at 1000×g for 5min. […] Protein level were then quantified prior to use in western blots.
BCA protein quantification: Protein quantification was done using the Pierce BCA kit assay by Thermo Fisher Scientific. […] The plate was incubated at 37°C during 30 min in the dark and the absorbance was measured by FLUOstar OPTIMA, UK/ Infinite® F50 (UK) microplate reader at 590 nm. […]
Western Blot Analysis: Cells were harvested and lysed in RIPA buffer (R0278, Sigma) with the addition of protease cocktail inhibitor (P8348, Sigma), phosphatase inhibitor cocktail 2 (P5726, Sigma) and phosphatase inhibitor cocktail 3 (P0044, Sigma) and stored at - 20°C. Protein was quantified using BCA Protein Assay kit (23225, Thermo Fisher). […]

| Compound | γH2AX nuclear foci (PEO4 cells [1]) | DNA breaks (neutral COMET) (A2780cis cells) | apoptosis (PEO4 cells [2]) | nuclear level of FEN1 after cisplatin [3] |
| --- | --- | --- | --- | --- |
| Cc1csc2c1c(=O)n(O)c(=O)n2-c1ccccc1 [PTPD, 3-hydroxy-5-methyl-1-phenylthieno [2,3 d]pyrimidine-2,4(1H,3H)-dione] | increased nuclear γH2AX nuclear foci accumulation | substantially increased DNA breaks | accumulation of apoptotic cells | – |
| N.N.[Cl][Pt][Cl] [cisplatin] | – | – | – | significantly increased |
